Counter-ions that a name gives are not always drawn.
Target: T1, rh beta tryptase (Homo sapiens, UniProt Q15661)
T1 construct: purchased Promega
Experiment: tryptase inhibition test (cleavage of N-p-tosyl-Gly-Pro-Lys-para-nitroaniline, p-nitroaniline measured at 405 nm)
Assay type: biochemical
Details: Tris HCl buffer pH 7.4 with calcium and heparin; substrate 0.6 mM; 5 minutes' pre-incubation, 5 minutes incubation at 37° C.
Experimental: The compounds according to the invention are characterised by their tryptase-inhibiting activity. This ability to inhibit tryptase was investigated using the test described as follows. The measurement is carried out in Tris HCl buffer (100 mM), which additionally contains calcium (5 mM) and heparin ([…]), at pH 7.4. The standard used is rh beta tryptase which may be obtained commercially from Promega, for example. The substrate used is N-p-tosyl-Gly-Pro-Lys-para-nitroaniline in a concentration of 0.6 mM. The substrate is digested with tryptase to form p-nitroaniline which can be measured at 405 nm. Usually, an incubation period of 5 minutes and an incubation temperature of 37° C. are chosen. The enzyme activity used is 0.91 U/ml. The measurements are carried out in an Autoanalyser (Cobas Bio) made by Hofmann LaRoche. The potential inhibitory substances are used in concentrations of 10 μM in the screening, the inhibition of the tryptase being given in percent. The IC50 is determined at over 70% inhibition (concentration at which 50% of the enzyme activity is inhibited). After 5 minutes' pre-incubation of the potential inhibitory substances, the substrate is added to start the reaction, the formation of p-nitroaniline being taken as a measurement of the enzyme activity after 5 minutes, after testing the linearity.

T1 sequence (Q15661 31-275): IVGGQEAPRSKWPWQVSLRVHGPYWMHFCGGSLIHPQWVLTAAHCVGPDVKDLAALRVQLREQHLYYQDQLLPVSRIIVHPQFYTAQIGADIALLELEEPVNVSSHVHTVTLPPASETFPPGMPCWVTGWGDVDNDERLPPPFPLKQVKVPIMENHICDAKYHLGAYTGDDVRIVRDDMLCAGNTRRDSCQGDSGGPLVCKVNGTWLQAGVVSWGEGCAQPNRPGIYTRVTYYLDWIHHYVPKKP

| Molecule | IC50 [µM] |
| --- | --- |
| Cn1c(CCc2ccc(C(=N)N)cc2)nc2cc(N(Cc3cccc4ccccc34)C(=O)CNCc3ccc(N4CCCC4)cc3)ccc21 [Example 82, N-{2-[2-(4-Amidinophenyl)-ethyl]-1-methyl-benzimidazol-5-yl}-N-( - naphthylmethyl)-[2-(N-4-pyrrolidin-1-ylbenzylamino)-acetamide]-dihydrochloride] | 0.0049 |
| Cn1c(CCc2ccc(C(=N)N)cc2)nc2cc(N(Cc3ccccc3)C(=O)CCCN)ccc21 [Example 36, N-{2-[2-(4-Amidinophenyl)-ethyl]-1-methyl-benzimidazol-5-yl}-N-benzyl-[4-amino-butanoic acid amide]-dihydrochloride] | 0.07 |
| Cn1c(CCc2ccc(C(=N)N)cc2)nc2cc(N(Cc3cccc4ccccc34)C(=O)CCCc3ccc([N+](=O)[O-])cc3)ccc21 [Example 42, N-{2-[2-(4-Amidinophenyl)-ethyl]-1-methyl-benzimidazol-5-yl}-N-(α-naphthylmethyl)-[4-(4-nitrophenyl)-butyroamide]-hydrochloride] | 0.011 |
| Cn1c(CCc2ccc(C(=N)N)cc2)nc2cc(N(Cc3cccc4ccccc34)C(=O)CCc3cccc(C(=N)N)c3)ccc21 [Example 19, N-{2-[2-(4-Amidinophenyl)-ethyl]-1-methyl-benzimidazol-5-yl}-N-- naphthylmethyl-[3-(3-amidinophenyl)-propionamide]-dihydrochloride] | 0.016 |
| Cn1c(CCc2ccc(C(=N)N)cc2)nc2cc(N(Cc3ccc4ccccc4c3)C(=O)CCc3ccc(C(=N)N)cc3)ccc21 [Example 9, N-{2-[2-(4-Amidinophenyl)-ethyl]-1- -methy-benzimidazol-5-yl}-N-β-naphthylmethyl-[3-(4-amidinophenyl)-propionamide]-dihydrochloride] | 0.024 |
| CN(C)CCCC(=O)N(Cc1ccccc1)c1ccc2c(c1)nc(CCc1ccc(C(=N)N)cc1)n2C [Example 37, N-{2-[2-(4-Amidinophenyl)-ethyl]-1-methyl-benzimidazol-5-yl}-N-benzyl-[4-dimethyl-amino-butanoic acid amide]-dihydrochloride] | 0.076 |
| Cn1c(CCc2ccc(C(=N)N)cc2)nc2cc(N(Cc3cccc4ccccc34)C(=O)CCC3CCNCC3)ccc21 [Example 38, N-{2-[2-(4-Amidinophenyl)-ethyl]-1-methyl-benzimidazol-5-yl}-N-( - naphthylmethyl)-[3-(piperidin-4-yl)-propionamide]-dihydrochloride] | 0.047 |
| CN(C(=O)CCC1CCN(Cc2ccccc2)CC1)c1ccc2c(c1)nc(CCc1ccc(C(=N)N)cc1)n2C [Example 2, N-{2-[2-(4-Amidinophenyl)-ethyl]-1-methyl-benzimidazol-5-yl}-N-methyl-[3-(N-benzyl-piperid-4-yl)-propionamide]-dihydrochloride] | 0.19 |
| Cn1c(CCc2ccc(C(=N)N)cc2)nc2cc(N(Cc3cccc4ccccc34)C(=O)CNCc3ccncc3)ccc21 [Example 48, N-{2-[2-(4-Amidinophenyl)-ethyl]-1-methyl-benzimidazol-5-yl}-N-( - naphthylmethyl)-[2-(pyridin-4-ylmethylamino)-acctamide]-dihydrochloride] | 0.038 |
| Cn1c(CCc2ccc(C(=N)N)cc2)nc2cc(N(Cc3ccccc3)C(=O)CCc3ccc(C(=N)N)cc3)ccc21 [Example 12, N-{2-[2-(4-Amidinophenyl)-ethyl]-1-methyl-benzimidazol-5-yl}-N-benzyl-[3-(4-amidinophenyl)-propionamide]-dihydrochloride] | 0.03 |
| Cn1c(CCc2ccc(C(=N)N)cc2)nc2cc(N(Cc3cccc4ccccc34)C(=O)CN3CCN(c4ccccn4)CC3)ccc21 [Example 40, N-{2-[2-(4-Amidinophenyl)-ethyl]-1-methyl-benzimidazol-5-yl}-N-( - naphthylmethyl)-[2-(1-pyridin-2-yl-piperazin-4-yl)-acetamide]-dihydro-chloride] | 0.013 |
| Cn1c(CCc2ccc(C(=N)N)cc2)nc2cc(N(Cc3cccc4ccccc34)C(=O)COCc3ccc([N+](=O)[O-])cc3)ccc21 [Example 75, N-{2-[2-(4-Amidinophenyl)-ethyl]-1-methyl-benzimidazol-5-yl}-N-(-- naphthylmethyl)-[2-(4-nitrobenzyloxy)-acetamide]-hydrochloride] | 0.0172 |
| Cn1c(CCc2ccc(C(=N)N)cc2)nc2cc(N(Cc3ccccc3)C(=O)CCc3cccc(C(=N)N)c3)ccc21 [Example 33, N-{2-[2-(4-Amidinophenyl)-ethyl]-1-methyl-benzimidazol-5-yl}-N-benzyl-[3-(3-amidinophenyl)-propionamide]-dihydrochloride] | 0.026 |
| COc1ccc(CNCC(=O)N(Cc2cccc3ccccc23)c2ccc3c(c2)nc(CCc2ccc(C(=N)N)cc2)n3C)cc1 [Example 43, N-{2-[2-(4-Amidinophenyl)-ethyl]-1-methyl-benzimidazol-5-yl}-N-(- naphthylmethyl)-[2-(4-methoxybenzylamino)-acetamide]-dihydrochloride] | 0.01 |
| CN(C)CCN(C)CC(=O)N(Cc1cccc2ccccc12)c1ccc2c(c1)nc(CCc1ccc(C(=N)N)cc1)n2C [Example 41, N-{2-[2-(4-Amidinophenyl)-ethyl]-1-methyl-benzimidazol-5-yl}-N-(α-naphthylmethyl)-[2-(N-(2-dimethylaminoethyl)-N-methylamino)-acetamide]-trihydrochloride] | 0.018 |
| Cn1c(CCc2ccc(C(=N)N)cc2)nc2cc(N(Cc3c4ccccc4cc4ccccc34)C(=O)CCC3CCN(Cc4ccccc4)CC3)ccc21 [Example 56, N-{2-[2-(4-Amidinophenyl)-ethyl]-1-methyl-benzimidazol-5-yl}-N-(anthracen-9-ylmethyl)-[3-(1-benzyl-piperidin-4-yl)-propionamide]-dihydro-chloride] | 0.0906 |
| Cn1c(CCc2ccc(C(=N)N)cc2)nc2cc(N(Cc3ccccc3)C(=O)CCC3CCNCC3)ccc21 [Example 7] | 0.108 |
| Cn1c(CCc2ccc(C(=N)N)cc2)nc2cc(N(Cc3cccc4ccccc34)C(=O)CNCc3ccccc3)ccc21 [Example 62, N-{2-[2-(4-Amidinophenyl)-ethyl]-1-methyl-benzimidazol-5-yl}-N-( - naphthylmethyl)-[2-(N-benzylamino)-acetamide]-dihydrochloride] | 0.029 |
| Cn1c(CCc2ccc(C(=N)N)cc2)nc2cc(N(Cc3ccc4ccccc4c3)C(=O)CNCc3ccc([N+](=O)[O-])cc3)ccc21 [Example 53, N-{2-[2-(4-Amidinophenyl)-ethyl]-1-methyl-benzimidazol-5-yl}-N-(β-naphthylmethyl)-[2-(4-nitrobenzylamino)-acetamide]-hydrochloride] | 0.092 |
| N-{2-[2-(4-Amidinophenyl)-ethyl]-1- methyl-benzimidazol-5-yl}-N-( - naphthylmethylamino)-[2-(4- trifluoromethylbenzylamino)- acetamide]-dihydrochloride [Example 44] | 0.031 |
| Cn1c(CCc2ccc(C(=N)N)cc2)nc2cc(N(Cc3cccc4ccccc34)C(=O)CNCc3ccc(O)cc3)ccc21 [Example 52, N-{2-[2-(4-Amidinophenyl)-ethyl]-1-methyl-benzimidazol-5-yl}-N-( - naphthylmethyl)-[2-(4-hydroxybenzylamino)-acetamide]-dihydrochloride] | 0.012 |

Source: patent US6407130B1, “Carboxamide-substituted benzimidazoles having tryptase-inhibiting activity” (Boehringer Ingelheim Pharma KG, priority 1999, dated 2002)
